Key:
[1] = test system: LPA-induced histamine release; assay: LPA-induced histamine release test in mouse; type: in vivo; details: male CD1 mice; oral dose of 10 mg/kg; LPA 300 μg/mouse via tail vein 4 hours after administration; blood 2 minutes after LPA; read-out: efficacy rate (rate of individuals which showed the inhibition rate of 80% or more of plasma histamine)
Method: LPA-Induced Histamine Release Test in Mouse
LPA-induced histamine release test in mouse was carried out according to a method by Swaney et al. (The Journal of Pharmacology and Experimental Therapeutics, 336 (2011), pages 693-700). The test compound was suspended in 0.5% methylcellulose solution (133-14255, Wako), and orally administered to male CD1 mice (body weight: 30 to 40 g, supplied by Charles River Laboratories Japan) at a dose of 10 mL/kg. 4 hours after administration, LPA (857130P, Avanti) dissolved in a 0.1% BSA-containing PBS was administered via the tail vein (300 μg/mouse). Immediately, the mouse was anesthetized with isoflurane, and blood was collected via a vein 2 minutes after the administration of LPA. The blood was put into a test tube containing EDTA, and centrifuged at 4° C., 2,000×g, for 10 minutes to obtain the plasma.
The histamine concentration in the plasma was measured by EIA kit (62HTMPEB, Cisbio Bioassays).

[2] = test system: A2058 human melanoma cells; assay: Cell migration test (LPA-induced, Chemo-Tx); type: cell-based; details: LPA 100 nM, 3 hours, read-out: IC50: concentration of the test compound which inhibits the cell migration activity of LPA by 50%
Method: The cell migration test was carried out using Chemo-Tx (registered trademark) (116-8, Neuro Probe). A2058 human melanoma cells (obtained from European Collection of Cell Culture) were cultured in a serum-free EMEM medium for 24 hours, and then re-suspended in a 0.1% BSA-containing DMEM medium to obtain a cell suspension. The test compound dissolved in DMSO in various concentration was each added to the cell suspension, and the suspension was cultured at 37° C. for 15 minutes (the final DMSO concentration of 0.5%). LPA dissolved in a 0.1% BSA-containing DMEM medium (the final concentration of 100 nM) was added to Chemo-Tx 96 well plate, and a Chemo-Tx filter which had been coated with 0.001% Fibronectin on the both surfaces was put on the plate. The suspension of cultured cells (25,000 cells) was added onto the upper surface of the filter and further cultured at 37° C. for 3 hours, and the cells on the upper surface of the filter were removed. After the filter was removed and dried, the cells which had migrated to the lower surface of the filter were stained using Diff-Quik stain (16920, Sysmex). The absorbance of the filter (570 nm) was measured and the concentration of the test compound which inhibits the cell migration activity of LPA by 50%, (1050) was determined by non-linear regression analysis using EXSAS (version 7.6.0, Arm Systex).

IC50 [2] [nM]	Structure (SMILES)	responders at 10 mg/kg [1] [%]
≤ 200	COc1cc(-c2sc(Cl)cc2NC(=O)O[C@H](C)c2cc(F)ccc2F)ccc1-c1ccc(C2(C(=O)O)CC2)cc1 [I-388, (R)-1-{4′-[5-Chloro-3-({[1-(2,5-difluorophenyl)ethoxy]carbonyl}amino)thiophen-2-yl]-2′-methoxy-[1,1′-biphenyl]-4-yl}cyclopropanecarboxylic acid]	≥ 50
≤ 200	COc1cc(-c2sc(F)cc2NC(=O)O[C@H](C)c2ccccc2F)ccc1-c1ccc(C2(C(=O)O)CC2)cc1 [I-424, (R)-1-{4′-[5-Fluoro-3-({[1-(2-fluorophenyl)ethoxy]carbonyl}amino)thiophen-2-yl]-2′-methoxy-[1,1′-biphenyl]-4-yl}cyclopropanecarboxylic acid]	≥ 50
≤ 200	COc1cc(-c2sc(F)cc2NC(=O)O[C@H](C)c2ccc(F)cc2)ccc1-c1ccc(C2(C(=O)O)CC2)cc1 [I-432, (R)-1-{4′-[5-Fluoro-3-({[1-(4-fluorophenyl)ethoxy]carbonyl}amino)thiophen-2-yl]-2′-methoxy-[1,1′-biphenyl]-4-yl}cyclopropanecarboxylic acid]	≥ 50
≤ 200	COc1cc(-c2sc(F)cc2NC(=O)O[C@H](C)c2ccccc2C)ccc1-c1ccc(C2(C(=O)O)CC2)cc1 [I-450, (R)-1-{4′-[5-Fluoro-3-({[1-(o-tolyl)ethoxy]carbonyl}amino)thiophen-2-yl]-2′-methoxy-[1,1′-biphenyl]-4-yl}cyclopropanecarboxylic acid]	≥ 50
≤ 200	C[C@@H](OC(=O)Nc1cc(Cl)sc1-c1ccc(-c2ccc(C3(C(=O)O)CC3)cc2)cc1)c1ccsc1 [I-596, (R)-1-{4′-[5-Chloro-3-({[1-(thiophen-3-yl)ethoxy]carbonyl}amino)thiophen-2-yl]-[1,1′-biphenyl]-4-yl}cyclopropanecarboxylic acid]	≥ 50
≤ 200	Cc1cscc1[C@@H](C)OC(=O)Nc1cc(Cl)sc1-c1ccc(-c2ccc(C3(C(=O)O)CC3)cc2)cc1 [I-606, (R)-1-{4′-[5-Chloro-3-({[1-(4-methylthiophen-3-yl)ethoxy]carbonyl}amino)thiophen-2-yl]-[1,1′-biphenyl]-4-yl}cyclopropanecarboxylic acid]	≥ 50

Further lines, the compound ahead of its results:

Structure (SMILES)	IC50 [2] [nM]	responders at 10 mg/kg [1] [%]
COc1cc(-c2sc(F)cc2NC(=O)O[C@H](C)c2ccccc2)ccc1-c1ccc(C2(C(=O)O)CC2)cc1 [I-420]	≤ 200	≥ 50
COc1cc(-c2sc(F)cc2NC(=O)O[C@H](C)c2cccc(F)c2)ccc1-c1ccc(C2(C(=O)O)CC2)cc1 [I-428, (R)-1-{4′-[5-Fluoro-3-({[1-(3-fluorophenyl)ethoxy]carbonyl}amino)thiophen-2-yl]-2′-methoxy-[1,1′-biphenyl]-4-yl}cyclopropanecarboxylic acid]	≤ 200	≥ 50
COc1cc(-c2sc(F)cc2NC(=O)O[C@H](C)c2ccccc2Cl)ccc1-c1ccc(C2(C(=O)O)CC2)cc1 [I-442, (R)-1-{4′-[3-({[1-(2-Chlorophenyl)ethoxy]carbonyl}amino)-5-fluorothiophen-2-yl]-2′-methoxy-[1,1′-biphenyl]-4-yl}cyclopropanecarboxylic acid]	≤ 200	≥ 50
COc1cc(-c2sc(F)cc2NC(=O)O[C@H](C)c2cc(F)ccc2F)ccc1-c1ccc(C2(C(=O)O)CC2)cc1 [I-458, (R)-1-{4′-[3-({[1-(2,5-Difluorophenyl)ethoxy]carbonyl}amino)-5-fluorothiophen-2-yl]-2′-methoxy-[1,1′-biphenyl]-4-yl}cyclopropanecarboxylic acid]	≤ 200	≥ 50
C[C@@H](OC(=O)Nc1cc(F)sc1-c1ccc(-c2ccc(C3(C(=O)O)CC3)cc2)cc1)c1ccsc1 [I-640, (R)-1-{4′-[5-Fluoro-3-({[1-(thiophen-3-yl)ethoxy]carbonyl}amino)thiophen-2-yl]-[1,1′-biphenyl]-4-yl}cyclopropanecarboxylic acid]	≤ 200	≥ 50

— patent publication US10597375B2, “Halogen-substituted heterocyclic compound” (UBE INDUSTRIES, LTD., priority 2012, dated 2020)
